Among the data in publication PMC4448982, “LP-925219 maximizes urinary glucose excretion in mice by inhibiting both renal SGLT1 and SGLT2” (Pharmacology Research & Perspectives, 2015) are IC50 values, retold here.

The target of assay [1] is T1, human SGLT2 (Homo sapiens, UniProt P31639).
T1 sequence (P31639 1-672): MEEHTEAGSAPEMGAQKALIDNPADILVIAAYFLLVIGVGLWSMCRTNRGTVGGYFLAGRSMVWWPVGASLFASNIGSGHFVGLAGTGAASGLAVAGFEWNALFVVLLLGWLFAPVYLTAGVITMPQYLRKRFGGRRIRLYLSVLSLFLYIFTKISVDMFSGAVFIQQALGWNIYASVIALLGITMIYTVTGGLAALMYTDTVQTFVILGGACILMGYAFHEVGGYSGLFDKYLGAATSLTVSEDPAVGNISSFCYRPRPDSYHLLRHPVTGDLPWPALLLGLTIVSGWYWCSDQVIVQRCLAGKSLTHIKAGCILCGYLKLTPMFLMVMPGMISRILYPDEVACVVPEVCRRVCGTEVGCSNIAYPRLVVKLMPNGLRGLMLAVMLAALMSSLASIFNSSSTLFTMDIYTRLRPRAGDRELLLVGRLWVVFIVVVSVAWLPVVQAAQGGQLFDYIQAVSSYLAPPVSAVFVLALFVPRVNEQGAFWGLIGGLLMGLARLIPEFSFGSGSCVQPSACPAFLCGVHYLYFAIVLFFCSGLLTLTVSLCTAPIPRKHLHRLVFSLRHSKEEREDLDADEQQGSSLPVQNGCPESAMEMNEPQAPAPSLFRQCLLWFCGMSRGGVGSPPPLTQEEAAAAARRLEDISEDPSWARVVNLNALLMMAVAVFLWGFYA
Kind of assay: Compound washout study, cells expressing human SGLT2.
Text: Cells expressing human SGLT2 were studied using the above protocol. […] Cells expressing human SGLT2 were studied using the above protocol.

The target of assay [2] is T1, human SGLT2. Kind of assay: 14C-AMG uptake assay, HEK293 cells expressing human SGLT2. In kind it is cell-based. Details: expressed in transfected cells. The conditions noted are these: mean ± SD. The source says: (§1) Methods for generating cell lines expressing mouse, rat, and dog SGLT1 and SGLT2 are published (Powell et al. [2013b], [2014]). Full-length coding sequence of human SGLT1 (NP_000334) and human SGLT2 (NP_003032.1) with an HA-tag at the N-terminus were cloned into the mammalian expression vector pIRESpuro2 (Clontech, Mountain View, CA). HEK293 cells (ATCC, Manassas, VA) were transfected with the pIRESpuro2 vector containing human SGLT1 or SGLT2 and bulk stable cell lines were selected in the presence of 0.5 μg/mL of puromycin.
(§2) Cell lines expressing SGLT1 or SGLT2 were plated into poly-D-lysine-coated 384-well plates, and culture overnight in cell growth medium. Cells were washed, and then incubated in uptake buffer ([…], […] KCl, […] CaCl2, […] MgCl2, […] HEPES/Tris, 1 mg/mL of bovine serum albumin, pH7.4) containing [^14C]α-methylglucopyranoside (^14C-AMG), a nonmetabolizable glucose analog specific for sodium-dependent glucose transporters (Wright and Turk [2004]). The inhibition of SGLT1 or SGLT2 was determined by measuring SGLT1/2-mediated ^14C-AMG uptake in the presence of increasing compound concentrations of LP-925219. […] Standard sigmoidal dose–response model curves were fitted, and the IC50 value was computed as the LP-925219 concentration that inhibited the ^14C-AMG uptake by 50% between baseline and maximum uptake.

Assay [3] addresses T2, human SGLT1 (Homo sapiens, UniProt P13866).
T2 sequence (P13866 1-664): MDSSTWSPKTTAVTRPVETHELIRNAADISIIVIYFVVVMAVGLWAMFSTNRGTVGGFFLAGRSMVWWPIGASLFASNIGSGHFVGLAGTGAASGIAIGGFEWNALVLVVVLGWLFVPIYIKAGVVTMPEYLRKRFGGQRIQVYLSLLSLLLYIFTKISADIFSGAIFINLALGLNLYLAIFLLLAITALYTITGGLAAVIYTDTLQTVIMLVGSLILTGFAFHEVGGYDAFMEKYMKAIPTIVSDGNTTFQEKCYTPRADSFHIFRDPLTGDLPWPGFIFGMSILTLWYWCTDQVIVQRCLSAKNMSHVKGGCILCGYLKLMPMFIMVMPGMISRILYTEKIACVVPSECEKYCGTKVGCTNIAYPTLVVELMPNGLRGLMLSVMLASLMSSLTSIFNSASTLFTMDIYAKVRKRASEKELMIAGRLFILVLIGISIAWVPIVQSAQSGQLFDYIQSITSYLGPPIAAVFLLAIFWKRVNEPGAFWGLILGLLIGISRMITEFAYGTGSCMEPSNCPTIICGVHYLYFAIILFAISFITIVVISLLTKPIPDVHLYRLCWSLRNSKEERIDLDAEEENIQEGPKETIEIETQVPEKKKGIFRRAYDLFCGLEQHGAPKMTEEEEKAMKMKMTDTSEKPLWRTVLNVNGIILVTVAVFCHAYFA
Kind of assay: 14C-AMG uptake assay, HEK293 cells expressing human SGLT1. Also noted: expressed in transfected cells. In kind it is cell-based. Particulars: mean ± SD.
Text: as §1, §2

Structures are written as SMILES.

Consider `COc1ccc(Cc2cc([C@@H]3O[C@H](SC)[C@@H](O)[C@H](O)[C@H]3O)ccc2Cl)cc1` [LP-925219], for which the IC50 in assay [1] (no wash protocol) is 2.2 nM; in assay [1] (washout protocol, 18-20 h recovery after 30 min treatment) it was 6.8 nM; in assay [2], 2.1 ± 0.5 nM; in assay [3], 15.9 ± 4.2 nM.

One may read the IC50 as the concentration needed to halve the response being measured. The low end stands for inhibition by little substance, the high end for a need for much substance.
